The structures appear in SMILES notation. Calls of active or inactive are those of the source.

For assay [1], the target named is T1, CAAX prenyl protease 2 (Saccharomyces cerevisiae S288c, UniProt Q03530).
T1 sequence (Q03530 whole entry): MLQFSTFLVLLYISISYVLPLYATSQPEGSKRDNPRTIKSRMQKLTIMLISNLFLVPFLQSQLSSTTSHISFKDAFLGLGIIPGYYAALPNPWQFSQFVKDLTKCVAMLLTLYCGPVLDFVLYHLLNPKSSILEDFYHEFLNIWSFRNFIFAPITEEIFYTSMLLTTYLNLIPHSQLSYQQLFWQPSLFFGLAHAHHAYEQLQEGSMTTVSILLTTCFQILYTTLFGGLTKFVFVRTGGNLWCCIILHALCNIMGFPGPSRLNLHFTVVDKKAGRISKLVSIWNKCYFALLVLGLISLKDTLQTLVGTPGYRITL
The format is biochemical.

Assay [2] has as its target Delta-type opioid receptor (Homo sapiens, UniProt P41143). Description: Counterscreen for agonists of heterodimerization of the mu 1 (OPRM1) and delta 1 (OPRD1) opioid receptors: Luminescence-based cell-based high throughput dose response assay to identify agonists of OPRD1 homodimerization. [Related pubchem assays (depositor defined):AID504326, AID504355, AID504692, AID504904, AID504905]. Format: functional. In general terms: Counterscreens check selectivity or assay interference.

The target of assay [3] is Mu-type opioid receptor (Homo sapiens, UniProt P35372). Description: Counterscreen for agonists of heterodimerization of the mu 1 (OPRM1) and delta 1 (OPRD1) opioid receptors: Luminescence-based cell-based high throughput dose response assay to identify agonists of OPRM1 homodimerization. Format: functional.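 Further: U2OS cells expressing OPRM1 and beta-arrestin as split beta-galactosidase partners.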
Assay [4] deals with T2, Ubiquitin-conjugating enzyme E2 N (Homo sapiens, UniProt P61088).
T2 sequence (P61088 whole entry): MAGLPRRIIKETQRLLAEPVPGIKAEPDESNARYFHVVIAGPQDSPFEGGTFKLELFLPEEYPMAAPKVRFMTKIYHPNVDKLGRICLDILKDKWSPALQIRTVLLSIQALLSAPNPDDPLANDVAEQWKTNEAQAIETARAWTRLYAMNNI
Format: functional.

Assay [5] addresses SUMO E1/E2 (Homo sapiens, UniProt P63279+Q9UBE0+Q9UBT2). The experiment in a line: SAR analysis of SUMOylation using HTRF in an in-Vitro dose response assay. [Related pubchem assays (depositor defined):AID2006, AID2011, AID2018, AID2069, AID2658]. Format: functional. Background: Time-resolved FRET reads energy transfer from a long-lived donor to a nearby acceptor.
The target in assay [6] is T3, Caspase-3 (Homo sapiens, UniProt P42574).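 Further: Dose-response selectivity test against caspase-3 for candidate inhibitors of sentrin-specific proteases (SENPs).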
T3 sequence (P42574 whole entry): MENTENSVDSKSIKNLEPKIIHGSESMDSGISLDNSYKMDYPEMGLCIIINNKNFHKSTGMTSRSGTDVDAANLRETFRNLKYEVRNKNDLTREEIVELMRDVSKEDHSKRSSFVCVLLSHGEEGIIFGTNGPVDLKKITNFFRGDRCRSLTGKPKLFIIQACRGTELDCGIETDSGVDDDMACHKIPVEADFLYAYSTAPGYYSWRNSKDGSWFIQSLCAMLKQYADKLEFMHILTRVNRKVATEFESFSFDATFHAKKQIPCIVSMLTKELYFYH
The format is functional.

For assay [7], the target named is Protein-tyrosine kinase 2-beta (Homo sapiens, UniProt Q14289).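 Further: potency of inhibitors of PYK2 kinase phosphorylation of poly-GT substrate.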
For assay [8], the target named is Phospholipase A2 (Homo sapiens, UniProt P04054). Format: functional.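 Further: confirmatory dose-response counterscreen on phospholipase A2, testing hits that came from an ultra-high-throughput screen for ATG4B inhibitors.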
Assay [9] deals with HEK293. The experiment in a line: optical interference in Abeta FP readout, dose response, artefact control for IDE activator project, biochemical, fluorescence polarization (AID 588442). Format: functional, cell-based. The note with it: Homo sapiens. On the technique in general: Fluorescence polarisation rises when a labelled molecule tumbles more slowly, as on binding a larger partner.

The target in assay [10] is T4, Histone-lysine N-methyltransferase NSD2 (Homo sapiens, UniProt O96028).
T4 sequence (O96028 whole entry): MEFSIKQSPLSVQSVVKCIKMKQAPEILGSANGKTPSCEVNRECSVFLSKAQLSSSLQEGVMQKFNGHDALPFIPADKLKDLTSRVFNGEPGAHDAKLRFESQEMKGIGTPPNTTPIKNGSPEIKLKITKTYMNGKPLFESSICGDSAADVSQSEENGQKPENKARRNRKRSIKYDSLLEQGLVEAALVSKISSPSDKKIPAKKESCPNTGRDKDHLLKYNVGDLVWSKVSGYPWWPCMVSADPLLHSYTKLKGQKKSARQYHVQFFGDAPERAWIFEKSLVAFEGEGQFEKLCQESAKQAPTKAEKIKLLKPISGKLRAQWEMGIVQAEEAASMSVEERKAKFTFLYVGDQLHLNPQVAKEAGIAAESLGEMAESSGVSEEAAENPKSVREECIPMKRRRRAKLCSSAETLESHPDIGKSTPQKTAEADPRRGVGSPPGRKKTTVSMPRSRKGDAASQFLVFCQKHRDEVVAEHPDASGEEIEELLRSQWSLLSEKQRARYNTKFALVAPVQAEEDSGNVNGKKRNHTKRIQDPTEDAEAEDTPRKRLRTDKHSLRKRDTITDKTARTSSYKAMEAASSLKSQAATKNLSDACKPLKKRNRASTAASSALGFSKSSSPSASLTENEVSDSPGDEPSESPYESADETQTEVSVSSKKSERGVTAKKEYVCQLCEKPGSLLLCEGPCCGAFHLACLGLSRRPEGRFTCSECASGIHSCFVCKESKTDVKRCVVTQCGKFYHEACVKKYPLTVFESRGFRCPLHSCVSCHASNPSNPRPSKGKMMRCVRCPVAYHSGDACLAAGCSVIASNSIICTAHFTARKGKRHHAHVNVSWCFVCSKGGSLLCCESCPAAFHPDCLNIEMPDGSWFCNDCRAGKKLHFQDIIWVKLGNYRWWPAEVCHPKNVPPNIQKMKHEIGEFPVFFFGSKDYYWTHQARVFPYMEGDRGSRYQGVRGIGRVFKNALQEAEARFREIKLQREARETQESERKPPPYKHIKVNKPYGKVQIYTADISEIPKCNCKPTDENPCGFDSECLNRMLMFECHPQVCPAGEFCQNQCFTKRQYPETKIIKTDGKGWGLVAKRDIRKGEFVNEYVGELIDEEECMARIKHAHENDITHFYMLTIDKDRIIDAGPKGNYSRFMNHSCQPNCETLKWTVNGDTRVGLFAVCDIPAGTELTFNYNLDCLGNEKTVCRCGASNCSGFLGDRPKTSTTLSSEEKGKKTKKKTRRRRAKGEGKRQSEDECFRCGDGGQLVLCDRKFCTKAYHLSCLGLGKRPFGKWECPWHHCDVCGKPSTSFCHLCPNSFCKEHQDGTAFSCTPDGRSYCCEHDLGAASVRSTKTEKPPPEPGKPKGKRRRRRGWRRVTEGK
Format: biochemical.

The subject of assay [11] is HEK293. Description: membrane integrity loss in HEK cells – cell-based, fluorescence, cytotoxicity control for IDE activator project, dose response (AID 588440).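 Further: cytotoxicity by LDH release measuring loss of membrane integrity.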 The format is functional. The note with it: Homo sapiens.
Assay [12] concerns the target Beta-lactamase (Pseudomonas aeruginosa, UniProt Q79MP6).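 Further: biochemical dose-response test of metallo-beta-lactamase enzyme inhibition, read out by epi-absorbance; purified recombinant IMP-1 metallo-beta-lactamase with nitrocefin as substrate.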

Sequence of Beta-lactamase (Q79MP6 whole entry): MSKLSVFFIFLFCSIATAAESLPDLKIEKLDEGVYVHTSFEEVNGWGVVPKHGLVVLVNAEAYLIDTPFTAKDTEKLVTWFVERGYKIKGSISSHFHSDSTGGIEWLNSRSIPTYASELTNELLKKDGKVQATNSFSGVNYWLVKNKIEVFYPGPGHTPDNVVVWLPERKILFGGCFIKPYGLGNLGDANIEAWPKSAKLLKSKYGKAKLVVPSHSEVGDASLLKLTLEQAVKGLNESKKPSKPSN
Sequence of Mu-type opioid receptor (P35372 whole entry): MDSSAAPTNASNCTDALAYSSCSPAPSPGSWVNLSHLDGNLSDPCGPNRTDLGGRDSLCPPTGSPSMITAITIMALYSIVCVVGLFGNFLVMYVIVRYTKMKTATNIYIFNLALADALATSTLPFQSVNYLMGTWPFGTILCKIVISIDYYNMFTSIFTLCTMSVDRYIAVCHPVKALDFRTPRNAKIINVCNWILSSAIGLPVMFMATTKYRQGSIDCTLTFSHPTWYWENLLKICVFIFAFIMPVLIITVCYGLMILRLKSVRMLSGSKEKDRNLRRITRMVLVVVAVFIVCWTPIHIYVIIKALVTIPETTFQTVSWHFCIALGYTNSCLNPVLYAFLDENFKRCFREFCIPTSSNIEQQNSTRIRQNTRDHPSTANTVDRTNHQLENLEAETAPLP
Sequence of Phospholipase A2 (P04054 whole entry): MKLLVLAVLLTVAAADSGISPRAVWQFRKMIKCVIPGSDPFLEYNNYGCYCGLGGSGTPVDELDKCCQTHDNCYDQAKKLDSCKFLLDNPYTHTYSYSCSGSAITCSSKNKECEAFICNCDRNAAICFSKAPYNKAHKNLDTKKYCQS
Sequence of Delta-type opioid receptor (P41143 whole entry): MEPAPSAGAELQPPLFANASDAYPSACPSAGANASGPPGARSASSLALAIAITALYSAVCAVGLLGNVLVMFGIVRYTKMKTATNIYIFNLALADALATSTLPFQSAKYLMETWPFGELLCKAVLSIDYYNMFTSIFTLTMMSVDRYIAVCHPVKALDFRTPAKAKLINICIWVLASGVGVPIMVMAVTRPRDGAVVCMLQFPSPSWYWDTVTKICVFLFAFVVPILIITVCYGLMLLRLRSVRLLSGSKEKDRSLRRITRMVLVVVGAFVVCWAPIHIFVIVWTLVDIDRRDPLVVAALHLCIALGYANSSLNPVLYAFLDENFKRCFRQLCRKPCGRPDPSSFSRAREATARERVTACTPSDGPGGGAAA
Sequence of SUMO E1/E2 (Q9UBE0 whole entry): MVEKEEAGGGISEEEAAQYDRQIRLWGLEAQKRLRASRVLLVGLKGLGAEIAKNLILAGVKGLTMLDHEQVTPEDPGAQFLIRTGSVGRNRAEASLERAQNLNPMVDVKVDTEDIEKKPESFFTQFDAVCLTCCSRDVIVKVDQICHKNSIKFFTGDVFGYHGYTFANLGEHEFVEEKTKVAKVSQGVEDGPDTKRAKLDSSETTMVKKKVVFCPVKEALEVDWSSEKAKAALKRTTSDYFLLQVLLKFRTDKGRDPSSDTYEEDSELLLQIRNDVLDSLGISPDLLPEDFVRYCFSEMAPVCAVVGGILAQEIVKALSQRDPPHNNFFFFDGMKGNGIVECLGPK
Sequence of SUMO E1/E2 (Q9UBT2 whole entry): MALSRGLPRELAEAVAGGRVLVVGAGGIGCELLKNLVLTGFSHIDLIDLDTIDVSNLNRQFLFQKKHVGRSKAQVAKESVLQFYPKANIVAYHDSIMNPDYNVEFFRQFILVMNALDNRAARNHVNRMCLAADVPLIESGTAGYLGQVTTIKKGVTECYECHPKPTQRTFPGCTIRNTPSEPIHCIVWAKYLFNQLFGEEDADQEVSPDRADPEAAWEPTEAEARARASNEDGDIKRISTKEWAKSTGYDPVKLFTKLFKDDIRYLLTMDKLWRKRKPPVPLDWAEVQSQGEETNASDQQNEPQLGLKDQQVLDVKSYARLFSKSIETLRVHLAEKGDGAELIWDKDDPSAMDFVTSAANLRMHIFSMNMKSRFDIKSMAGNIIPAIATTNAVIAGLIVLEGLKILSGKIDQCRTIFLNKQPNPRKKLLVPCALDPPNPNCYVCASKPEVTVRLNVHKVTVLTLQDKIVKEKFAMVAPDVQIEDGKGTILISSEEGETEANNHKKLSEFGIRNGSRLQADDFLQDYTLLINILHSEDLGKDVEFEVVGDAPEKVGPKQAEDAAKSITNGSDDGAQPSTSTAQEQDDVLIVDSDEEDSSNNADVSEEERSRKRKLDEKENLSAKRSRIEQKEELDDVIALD
Sequence of SUMO E1/E2 (P63279 whole entry): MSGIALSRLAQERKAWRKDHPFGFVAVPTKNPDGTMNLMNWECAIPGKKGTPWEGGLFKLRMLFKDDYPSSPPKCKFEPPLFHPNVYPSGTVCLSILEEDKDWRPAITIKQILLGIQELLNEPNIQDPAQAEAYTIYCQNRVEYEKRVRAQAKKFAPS
Sequence of Protein-tyrosine kinase 2-beta (Q14289 whole entry): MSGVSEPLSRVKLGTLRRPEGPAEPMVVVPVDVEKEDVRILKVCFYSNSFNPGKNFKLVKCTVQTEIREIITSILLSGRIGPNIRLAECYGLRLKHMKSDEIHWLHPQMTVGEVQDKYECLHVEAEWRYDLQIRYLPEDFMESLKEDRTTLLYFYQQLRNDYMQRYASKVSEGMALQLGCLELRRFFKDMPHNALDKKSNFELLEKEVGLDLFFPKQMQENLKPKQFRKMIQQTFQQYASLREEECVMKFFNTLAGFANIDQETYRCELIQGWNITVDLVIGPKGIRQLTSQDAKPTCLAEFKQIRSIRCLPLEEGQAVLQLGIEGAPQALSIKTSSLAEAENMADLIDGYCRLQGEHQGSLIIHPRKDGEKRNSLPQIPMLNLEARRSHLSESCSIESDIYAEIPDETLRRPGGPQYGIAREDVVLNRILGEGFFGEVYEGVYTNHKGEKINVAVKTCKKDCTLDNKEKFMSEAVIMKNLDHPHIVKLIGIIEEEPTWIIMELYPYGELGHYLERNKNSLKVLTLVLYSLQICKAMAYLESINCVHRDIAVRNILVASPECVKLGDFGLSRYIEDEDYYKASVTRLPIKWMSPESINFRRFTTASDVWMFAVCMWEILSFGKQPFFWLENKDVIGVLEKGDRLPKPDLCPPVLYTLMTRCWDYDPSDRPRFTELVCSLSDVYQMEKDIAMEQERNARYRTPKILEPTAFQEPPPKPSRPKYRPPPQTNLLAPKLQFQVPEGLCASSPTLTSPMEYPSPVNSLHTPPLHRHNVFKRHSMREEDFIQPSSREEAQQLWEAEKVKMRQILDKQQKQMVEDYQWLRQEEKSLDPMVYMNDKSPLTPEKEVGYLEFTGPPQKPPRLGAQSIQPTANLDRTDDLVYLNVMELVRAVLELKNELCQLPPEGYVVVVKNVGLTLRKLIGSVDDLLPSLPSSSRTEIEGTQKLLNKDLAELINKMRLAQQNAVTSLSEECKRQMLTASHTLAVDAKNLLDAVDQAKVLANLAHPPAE

With `CCCCCCCCCCOC(=O)C[n+]1c(COc2ccccc2C)n(C)c2ccccc21`, the AC50 (as a rule, the concentration giving half of the maximal activity seen) in assay [1] is 8.72 µM (active). For the same compound, the EC50 in assay [2] and in assay [3] was > 92.5 µM (inactive) in each case. Moreover, the IC50 (as a rule, the point on the concentration scale where inhibition reaches its midpoint) in assay [4] is > 20 µM (inactive).
Regarding `Oc1nc(Nc2ccccc2)cc2ccccc12`, the IC50 is 6.32 µM (active) in assay [5], 1.02 µM (active) in assay [6], > 69.5 µM (not active) in assay [7] and > 80 µM (inactive) in assay [8].
Regarding `COc1cc(OC)c(-c2c3cc(O)c(=O)cc-3oc3cc(O)c(O)cc23)cc1OC`, the EC50 (usually the concentration needed to bring the measured effect to its halfway point) in assay [9] was > 6.21 µM (active). Besides, the AC50 in [10] is 0.282 µM (active). Besides, the figures for the IC50 in assay [11] and in [12] were > 89.2 µM (inactive) and 5.62 µM (active), respectively.

The values above are taken from ChEMBL document CHEMBL1201862, “PubChem BioAssay data set” (2004).
